In experiment [1] the target is T1, RelTt^NTD (Thermus thermophilus, UniProt Q5SHL3).
T1 sequence (Q5SHL3 1-355): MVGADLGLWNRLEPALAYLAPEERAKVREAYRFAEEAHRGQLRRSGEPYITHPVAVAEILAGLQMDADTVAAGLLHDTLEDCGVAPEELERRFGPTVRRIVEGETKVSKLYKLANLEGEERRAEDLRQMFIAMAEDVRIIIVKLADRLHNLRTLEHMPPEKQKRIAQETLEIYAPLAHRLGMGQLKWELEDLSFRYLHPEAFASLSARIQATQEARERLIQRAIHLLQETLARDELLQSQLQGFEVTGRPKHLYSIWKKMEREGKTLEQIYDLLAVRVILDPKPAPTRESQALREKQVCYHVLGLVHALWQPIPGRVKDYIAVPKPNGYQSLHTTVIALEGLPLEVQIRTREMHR
Description: isothermal titration calorimetry. The class given is binding.

Experiment [2] deals with T2, RelTt (Thermus thermophilus, UniProt Q5SHL3).
T2 sequence (Q5SHL3 1-727): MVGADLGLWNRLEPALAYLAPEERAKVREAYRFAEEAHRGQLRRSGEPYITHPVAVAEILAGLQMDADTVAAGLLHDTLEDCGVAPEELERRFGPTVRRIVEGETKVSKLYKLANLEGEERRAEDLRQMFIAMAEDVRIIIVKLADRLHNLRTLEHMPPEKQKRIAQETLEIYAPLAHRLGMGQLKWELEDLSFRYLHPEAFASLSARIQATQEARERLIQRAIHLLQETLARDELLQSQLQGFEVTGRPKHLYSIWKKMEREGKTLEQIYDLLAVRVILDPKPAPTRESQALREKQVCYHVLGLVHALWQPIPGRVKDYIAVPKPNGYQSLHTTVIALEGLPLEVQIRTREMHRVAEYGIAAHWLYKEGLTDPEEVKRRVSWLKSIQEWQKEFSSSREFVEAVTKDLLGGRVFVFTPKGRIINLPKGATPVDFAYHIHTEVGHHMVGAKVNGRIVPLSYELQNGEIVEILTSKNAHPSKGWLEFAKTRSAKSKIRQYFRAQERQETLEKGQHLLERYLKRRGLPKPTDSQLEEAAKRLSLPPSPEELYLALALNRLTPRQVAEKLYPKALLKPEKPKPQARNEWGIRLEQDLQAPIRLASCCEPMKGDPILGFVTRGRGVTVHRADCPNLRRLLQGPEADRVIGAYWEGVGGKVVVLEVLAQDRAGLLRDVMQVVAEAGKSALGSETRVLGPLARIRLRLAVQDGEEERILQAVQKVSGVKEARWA
Description: ppGpp synthetase activity. The note with it: enzyme alone (also with 70S IC and deacylated tRNAVal). Format: biochemical.

Structures are written as SMILES.

Broadly, the Kd is the equilibrium constant for the complex coming apart. Lower therefore signals higher affinity.

The compound `Nc1ncnc2c1ncn2[C@@H]1O[C@H](COP(=O)(O)CP(=O)(O)OP(=O)(O)O)[C@@H](O)[C@H]1O` [APCPP] gave a Kd in experiment [1] of about 50 µM.

Turning to `Nc1nc2c(ncn2[C@@H]2O[C@H](COP(=O)(O)OP(=O)(O)O)[C@@H](OP(=O)(O)OP(=O)(O)O)[C@H]2O)c(=O)[nH]1` [ppGpp], the ppGpp synthetase activity result in experiment [2] was “ppGpp synthetase activity of RelTt”.
